Test results reported in article PMC3353318 (Bioorganic & Medicinal Chemistry, 2011).
Values joined by “and” are separate entries in the source; they are usually repeats but may differ in a detail not shown here. Identical values can stand only once. “Also recorded” adds a separate entry of the source. Like-named read-outs stand apart in the source and are kept apart here.

Columns and labels:
NMDA receptors = assay type: cell-based, rat
[1] = cited from earlier work
[2] = tested on: bloodstream form T. brucei (strain 427); assay type: cell-based, Trypanosoma brucei
VSV in HEL cells = assay type: cell-based, vesicular stomatitis virus
[3] = tested on: vesicular stomatitis virus (VSV) in HeLa cells; conditions: for EC50: read-out: EC50 (50% antiviral effective concentration) against VSV
[4] = tested on: influenza A/Puerto Rico/8/34 (H1N1); test: Influenza virus assay, A/H1N1; assay type: cell-based; conditions: read-out: antiviral EC50 against influenza A/H1N1 subtype
[5] = read-out: IC50, Glutamate (100 μM)

Compound: 6,7,8,9,10,11-Hexahydro-9-methyl-5,7:9,11-dimethano-5H-benzocyclononen-7-amine hydrochloride [Compound 3]
- IC50 (NMDA receptors; [5]): 22 ± 3.9 µM
- IC50 (NMDA receptors; read-out: IC50, NMDA (100 μM)): 13.6 ± 3.4 µM

Compound: c1ccc(CNC23OC4C5C6CC(C7C6C4C72)C53)cc1 (stereo not shown) [NGP1-01]
- stability in aqueous medium (in words) [1]: decomposes easily in aqueous medium

Compound: N,N-Dimethyl-6,7,8,9,10,11-hexahydro-9-methyl-5,7:9,11-dimethano-5H-benzocyclononen-7-amine hydrochloride [Compound 11]
- inhibitory activity against cultured bloodstream form T. brucei (in words) ([2]; at 5 μg mL^−1 (15–20 μM)): little or no inhibitory activity
- IC50 (NMDA receptors; [5]): 87 ± 28 µM
- IC50 (NMDA receptors; read-out: IC50, NMDA (100 μM)): 12 µM and 11.8 µM

Compound: N,N-dipropargyl-6,7,8,9,10,11-hexahydro-9-methyl-5,7:9,11-dimethano-5H-benzocyclononen-7-amine hydrochloride [Compound 10]
- activity against VSV in HEL cells (in words) (VSV in HEL cells): not active
- selectivity index (ratio of cytotoxic to antiviral concentration) [3]: 25
- EC50 [3]: 4 µM

Compound: N-(6,7,8,9,10,11-hexahydro-9-methyl-5,7:9,11-dimethano-5H-benzocyclononen-7-yl)piperidine hydrochloride [Compound 12]
- IC50 (NMDA receptors; [5]): > 500 µM
- activity against VSV in HEL cells (in words) (VSV in HEL cells): not active
- EC50 [3]: 54 µM

Compound: N-Benzyl-6,7,8,9,10,11-hexahydro-9-methyl-5,7:9,11-dimethano-5H-benzocyclononen-7-amine hydrochloride [Compound 6]
- IC50 ([2]; read-out: IC50 against cultured bloodstream form T. brucei): 3 ± 0.32 µM
- IC90 ([2]; read-out: IC90 against cultured bloodstream form T. brucei): 6.55 ± 0.32 µM
- NMDA receptor antagonist activity (in words) (NMDA receptors): devoid of activity; also recorded: not active as NMDA receptor antagonist
- EC50 [4]: 10 µM

Compound: N-Benzyl-N-methyl-6,7,8,9,10,11-hexahydro-9-methyl-5,7:9,11-dimethano-5H-benzocyclononen-7-amine hydrochloride [Compound 7]
- NMDA receptor antagonist activity (in words) (NMDA receptors): devoid of activity

Compound: N-Methyl-6,7,8,9,10,11-hexahydro-9-methyl-5,7:9,11-dimethano-5H-benzocyclononen-7-amine hydrochloride [Compound 8]
- IC50 (NMDA receptors; [5]): 455 ± 216 µM
- IC50 (NMDA receptors; read-out: IC50, NMDA (100 μM)): 19.4 ± 3.3 µM

Compound: N-Propargyl-6,7,8,9,10,11-hexahydro-9-methyl-5,7:9,11-dimethano-5H-benzocyclononen-7-amine hydrochloride [Compound 9]
- IC90 lower than that of rimantadine (fold) ([2]; versus rimantadine): more than 4 times
- IC50 (NMDA receptors; [5]): > 500 µM
- IC50 (NMDA receptors; read-out: IC50, NMDA (100 μM)): 27.5 ± 13.2 µM
